pEC50, pIC50: −log10 of the molar value. In brackets after ≈: the same amount, converted by molar mass.
What was measured:
Vaccinia virus [1] = assay: Antiviral activity against Vaccinia virus infected in human HEL cells; assay type: functional, organism-based; settings: Orthopoxvirus vaccinia
HEL = assay: Cytotoxicity against human HEL cells assessed as reduction in cell growth; assay type: functional
Vaccinia virus [2] = assay: Antiviral activity against Vaccinia virus infected in African green monkey BSC-1 cells; assay type: functional, organism-based, Orthopoxvirus vaccinia; settings: Orthopoxvirus vaccinia, BSC-1
Vaccinia virus [3] = assay: Antiviral activity against Vaccinia virus VG9 infected in African green monkey BSC-1 cells; assay type: functional, organism-based, Orthopoxvirus vaccinia; settings: Orthopoxvirus vaccinia, VG9, BSC-1
Ectromelia virus = assay: Antiviral activity against ectromelia virus K-1 infected in Vero cells measured after 4 days by colorimetric assay; assay type: functional, organism-based; settings: K-1, Vero, 96 h
Vaccinia virus [4] = assay: Antiviral activity against Vaccinia virus Copenhagen infected in African green monkey Vero cells measured after 4 days by colorimetric assay; assay type: functional, organism-based; settings: Orthopoxvirus vaccinia, 96 h
Cowpox virus [5] = assay: Antiviral activity against Cowpox virus Grishak infected in African green monkey Vero cells measured after 4 days by colorimetric assay; assay type: functional, organism-based; settings: 96 h
Monkeypox virus [6] = assay: Antiviral activity against Monkeypox virus V79-1-005 infected in Vero cells measured after 4 days by colorimetric assay; assay type: functional, organism-based; settings: V79-1-005, Vero, 96 h
Vaccinia virus [7] = assay: Antiviral activity against Vaccinia virus infected in Vero cells measured after 4 days by colorimetric assay; assay type: functional, organism-based; settings: Orthopoxvirus vaccinia, 96 h
Vaccinia virus [8] = assay: Antiviral activity against Vaccinia virus infected in human HFF cells; assay type: functional, organism-based; settings: Orthopoxvirus vaccinia
Human alphaherpesvirus 2 = assay: Antiviral activity against Herpes simplex virus 2; assay type: functional, organism-based
Vaccinia virus [9] = assay: Antiviral activity against Vaccinia virus infected in African green monkey Vero cells; assay type: functional, organism-based; settings: Orthopoxvirus vaccinia
Vaccinia virus [10] = assay: Antiviral activity against Vaccinia virus Copenhagen infected in human HFF cells assessed as assessed as reduction in virus-induced cytopathic effect incubated for 7 days by microscopic analysis; assay type: functional, organism-based; settings: Orthopoxvirus vaccinia, 168 h
Cowpox virus [11] = assay: Antiviral activity against Cowpox virus Brighton infected in Vero cells measured after 4 days by colorimetric assay; assay type: functional, organism-based; settings: 96 h
Vaccinia virus [12] = assay: Antiviral activity against Vaccinia virus IHD-J infected in BSC40 cells assessed as reduction in plaque formation measured after 72 hrs by crystal violet staining based analysis; assay type: functional, organism-based; settings: Orthopoxvirus vaccinia, BSC-40, 72 h
Vaccinia virus [13] = assay: Antiviral activity against Vaccinia virus Copenhagen infected in HFF cells measured after 3 days by colorimetric assay; assay type: functional, organism-based; settings: Orthopoxvirus vaccinia, 72 h
Vaccinia virus [14] = assay: Antiviral activity against wild type Vaccinia virus infected in African monkey Vero cells measured after 5 days by MTT assay; assay type: functional, organism-based; settings: Orthopoxvirus vaccinia, 120 h
Vaccinia virus [15] = assay: Antiviral activity against Vaccinia virus infected in African green monkey Vero cells assessed as reduction virus induced cytopathic effect incubated for 24 hrs by MTT assay; assay type: functional, organism-based; settings: Orthopoxvirus vaccinia
Cowpox virus [16] = assay: Antiviral activity against Cowpox virus infected in Vero cells measured after 4 days by colorimetric assay; assay type: functional, organism-based; settings: 96 h
Variola virus = assay: Antiviral activity against Variola virus 7124 infected in monkey LLC-MK2 cells; assay type: functional, organism-based; settings: Variola virus, 7124, LLC-MK2
Monkeypox virus [17] = assay: Antiviral activity against Monkeypox virus Zr-599 infected in African green monkey Vero E6 cells assessed as reduction in plaque formation measured after 72 hrs by microscopic analysis; assay type: functional, organism-based; settings: Zr-599, Vero C1008, 72 h

O=C1N(Nc2ccc(Br)cc2)C(=O)C23C4C=CC5C4C4C(C=CC42)C153
pIC50 (Vaccinia virus [1]): 5.14
CC50 (HEL): > 100 µM

CCOC(=O)c1c(CSc2ccccc2)n(C)c2cc(Br)c(O)c(CN(C)C)c12 [UMIFENOVIR]
pEC50 (Vaccinia virus [2]): 5.18
pEC50 (Vaccinia virus [3]): 5.01

CC1(C)[C@@H]2CC[C@@]1(C)/C(=N/NC(=O)C1CCC(F)(F)CC1)C2
pIC50 (Ectromelia virus): 5.11
pIC50 (Vaccinia virus [4]): 5.74
pIC50 (Cowpox virus [5]): 5.08

O=C(NNC(=O)C1C2C=CC(C3CC23)C1C(=O)O)c1ccc(C(F)(F)F)cc1 (stereo not drawn)
EC50 (Ectromelia virus): 0.011 µg/mL (≈ 0.0279 µM)
EC50 (Monkeypox virus [6]): 0.013 µg/mL (≈ 0.033 µM)
EC50 (Vaccinia virus [7]): 0.001 µg/mL (≈ 0.00254 µM)

NC(CSC1(c2ccc(Cl)cc2)c2ccccc2-c2ccccc21)C(=O)O (stereo not drawn)
pIC50 (Vaccinia virus [8]): 4.32
pIC50 (Human alphaherpesvirus 2): 4.46

C#C[C@]1(OC(=O)CCCCCC)CC[C@H]2[C@@H]3CCC4=CC(=O)CC[C@@H]4[C@H]3CC[C@@H]21
pEC50 (Vaccinia virus [2]): 5.41
pEC50 (Vaccinia virus [3]): 5.57

CC1(C)[C@@H]2CC[C@@]1(C)[C@H](NC(=O)CCN1CCOCC1)C2
pIC50 (Vaccinia virus [9]): 5.13

CC1(C)[C@@H]2CC[C@@]1(C)[C@@H](NC(=O)c1ccc(Br)cc1)C2
pIC50 (Ectromelia virus): 6.15
pIC50 (Vaccinia virus [4]): 6.44
pIC50 (Cowpox virus [5]): 5.72

CCOc1ccc2c(c1)[C@H]1C=CC[C@H]1[C@H](c1ccccc1Cl)N2
pEC50 (Vaccinia virus [10]): 4.86

Cc1cc(NN2C(=O)C34C5C=CC6C5C5C3C=CC5C64C2=O)ccc1[N+](=O)[O-]
pIC50 (Vaccinia virus [1]): 5.52
CC50 (HEL): > 100 µM

CCCCCCCCCCCCCCCCOCCCOP(=O)(O)CO[C@H](CO)Cn1ccc(N)nc1=O [BRINCIDOFOVIR]
pEC50 (Cowpox virus [11]): 6.22

O=C1N(Nc2ccc(Cl)c(Br)c2)C(=O)C23C4C=CC5C4C4C(C=CC42)C153
pIC50 (Vaccinia virus [1]): 6.80
CC50 (HEL): > 100 µM

CCC(=O)N1CC(=O)Nc2ccc(Br)cc2C1c1ccccc1 (stereo not drawn)
pEC50 (Vaccinia virus [12]): 5.52

O=c1[nH]c(=O)n([C@H]2C[C@H](O)[C@@H](CO)S2)cc1I
pEC50 (Vaccinia virus [13]): 6.30
pEC50 (Vaccinia virus [14]): 7.30

O=C1N(Nc2ccc(Br)c(Cl)c2)C(=O)C23C4C=CC5C4C4C(C=CC42)C153
pIC50 (Vaccinia virus [1]): 6.22
CC50 (HEL): > 100 µM

Oc1ccc(NCc2ccccc2OCc2ccccc2)cc1
pEC50 (Vaccinia virus [10]): 5.15

O=C1c2ccccc2-c2onc3c2C1C(NC1CCCCC1)C=C3NCCO (stereo not drawn)
pEC50 (Vaccinia virus [10]): 5.08

CC1(C)[C@@H]2CC[C@@]1(C)[C@@H](NC(=O)c1ccc([N+](=O)[O-])cc1)C2
pIC50 (Ectromelia virus): 6.39
pIC50 (Vaccinia virus [4]): 7.52
pIC50 (Cowpox virus [5]): 5.85

Nc1ccn(C[C@@H](CO)OCP(=O)(O)O)c(=O)n1 [CIDOFOVIR ANHYDROUS]
pEC50 (Vaccinia virus [15]): 4.34
pEC50 (Cowpox virus [16]): 4.35

CCCCCCCCCCCCCCCCOCCCOP1(=O)COCC(Cn2ccc(N)nc2=O)O1 (stereo not drawn)
pEC50 (Vaccinia virus [15]): 5.42

CC(=O)OCC(COC(C)=O)OCn1cnc2c(N)ncnc21
pEC50 (Cowpox virus [16]): 5.70

Nc1nc(=O)n([C@@H]2C=C(CO)[C@@H](O)[C@H]2O)cc1F
pEC50 (Variola virus): 6.29

CC1(C)[C@H]2CC[C@]1(C)[C@H](OC(=O)CCCN1CCOCC1)C2
pIC50 (Vaccinia virus [9]): 5.10

O=C(NNC(=O)C1C2C=CC(C3CC23)C1C(=O)O)c1ccccc1O (stereo not drawn)
EC50 (Ectromelia virus): 0.54 µg/mL (≈ 1.58 µM)
EC50 (Monkeypox virus [6]): 0.153 µg/mL (≈ 0.447 µM)
EC50 (Vaccinia virus [7]): 0.032 µg/mL (≈ 0.0935 µM)

Nc1cc(OC[C@H](CO)OCP(=O)(O)O)nc(N)n1
pEC50 (Cowpox virus [16]): 4.34

Nc1ccn([C@@H]2C=C(CO)[C@@H](O)[C@H]2O)c(=O)n1
pEC50 (Variola virus): 7.52

O=C1N(Nc2ccc([N+](=O)[O-])cc2)C(=O)C23C4C=CC5C4C4C(C=CC42)C153
pIC50 (Vaccinia virus [1]): 5.52
CC50 (HEL): > 100 µM

O=C1C(O)=C([C@H]2CC[C@H](c3ccc(Cl)cc3)CC2)C(=O)c2ccccc21 [ATOVAQUONE]
pEC50 (Monkeypox virus [17]): 6.28

Cc1cn([C@H]2C[C@H](O)[C@]3(CO)C[C@H]23)c(=O)[nH]c1=O [(NORTH)-METHANOCARBATHYMIDINE]
pIC50 (Vaccinia virus [13]): 6.26
pIC50 (Cowpox virus [11]): 5.82

CC1(C)[C@@H]2CC[C@@]1(C)[C@@H](NC(=O)c1ccc(C(F)(F)F)cc1)C2
pIC50 (Ectromelia virus): 5.16
pIC50 (Vaccinia virus [4]): 6.22
pIC50 (Cowpox virus [5]): 5.21

— ChEMBL document CHEMBL5346934 (J Med Chem, 2023)
